Results on 1 compound are retold here after patent US11975005B2, “Treatment of respiratory diseases” (TIANLI BIOTECH PTY LTD, priority 2015, dated 2024).

Each structure is given as a SMILES string.

For experiment [1], the system named is RSV. Nature of the experiment: 5 day model of RSV infection, treatments from day 1. It is filed as in vivo, mice.
Experiment [2] relates to human parenchymal fibroblasts. Nature of the experiment: TGFβ-induced fibrogenic gene expression in human parenchymal lung fibroblasts. It is filed as cell-based. From the text: Experiments described in the current Example and Example 14 involved culture of human parenchymal fibroblasts, measurement of their proliferation and gene expression response, the methods for which are detailed in Schuliga et al 2009 (Am J Respir Cell Mol Biol. 2009; 41(6):731-41).
The investigation of fibrogenesis may be undertaken in in vivo models typically using rodents. However, differences in behavior of cell types and species differences in protein structures and signaling systems create some limitations in the predictive value of such models. Additional valuable evidence of impacts on fibrogenesis can be obtained from the use of human fibroblasts isolated from the parenchyma and maintained in cell culture (Schuliga et al. (2009) Am J Respir Cell Mol Biol 41(6):731-741; Westergren-Thorsson et al. (2004) Int J Biochem Cell Biol 36(8): 1573-1584).
The data shown is for parenchymal lung fibroblasts from both patients with the pulmonary fibrotic disease, idiopathic pulmonary fibrosis (IPF) and those derived samples of non-IPF donors. […] Colla is a subunit of the fibrillar type collagen that is deposited in excess in the extracellular matrix in fibrotic lesions.
FIG. 15B was performed in the same manner as for FIG. 15A except that in this experiment the fibroblasts are cultured as a suspended spheroid, rather than in 2D monolayer culture.

The test system of experiment [3] is RSV. As to the kind of experiment: HDM allergen challenge with RSV infection in mice. It is filed as in vivo. Particulars: HDM allergen challenged mice infected with 2 million RSV virions 3 days prior to post mortem. As to the method:
The conduct of the house dust mite allergy model with RSV complication was conducted as described herein and using the approaches described in Fuchs and Braun 2008 (Curr Drug Targets. 2008 June; 9(6):495-502).

On to `Nc1nccc(-c2c(-c3ccc(F)cc3)ncn2C2CCCCC2)n1` [PF670462], for which, in experiment [1], the “Levels of IFN β” value is listed as “enhanced”, the “Levels of IFN λ 2” value was “enhanced”, the “Levels of IFN λ 3” value is given as “enhanced” and the “TNFα expression in BAL cells when added to Dex treatment” value is reported as “further effect”. In experiment [1] (administered from day 1), the “accumulation of inflammatory cells in the BAL fluid” value is recorded as “reduced”. In addition, the “TNFα expression levels in BAL cells” value in experiment [1] (agent alone) is reported as “directly suppresses”. Moreover, the “TGFβ induction of Col1a (collagen 1A) expression” value in experiment [2] (2D monolayer fibroblasts from IPF and non-IPF donors, TGFβ 24 hour, 3 μM) is given as “significantly suppressed”. In experiment [2] (FIG. 15B, 3 μM), the “TGFβ-induced collagen 1A expression in IPF fibroblasts cultured as suspended spheroid” value is “inhibits” and the “TGFβ-induced collagen 1A increase in non-IPF derived cultures as suspended spheroid” value is listed as “not signficantly affected”. Also, the “fibrogenic actions of TGFβ (FIGS. 15A-C, collagen 1A and CTGF)” value in experiment [2] (IPF or non-IPF donors, 2D or 3D) was “inhibited”. The BAL cell number entry in experiment [3] is on record as “not significantly reduced”.
